Source: the supplement of paper PMC10627819

Tests used:
B. subtilis 168 [1] = assay: fitness (endpoint OD595 vs no drug) (fraction); higher = more growth
Summary of the method: (§1)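 In 384-well plates at 37 °C, cultures began at OD595 0.01 in 30 µl, with 55 µl used for S. pneumoniae. OD595 readings every 30 min for 14 h were corrected by the first reading. Fitness divides the stationary-phase transition optical density by the robust mean of no-drug control wells. The result is capped at 1.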

S. aureus Newman [2] = assay: as above
Summary of the method: as §1

S. pneumoniae D39V [3] = assay: as above
Summary of the method: as §1

B. subtilis 168 [4] = assay: Bliss interaction score (quartile over a dose matrix) (fitness difference); higher = more antagonism (negative = synergy)
Summary of the method: (§2)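 Combination data were used to infer fitness under each single drug. Fitness is the OD595 at entry into stationary phase divided by the robust mean of the plate's no-drug wells, with a cap of 1. The Bliss score is the observed minus the expected product fitness, summarised by quartiles over technical, biological and donor/recipient replicates.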

S. aureus DSM 20231 [5] = assay: as above
Summary of the method: as §2

S. aureus Newman [6] = assay: as above
Summary of the method: as §2

S. pneumoniae D39V [7] = assay: as above
Summary of the method: as §2

S. aureus DSM 20231 [8] = assay: fitness (endpoint OD595 vs no drug) (fraction); higher = more growth
Summary of the method: as §1
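Wherever Bliss interaction score (quartile over a dose matrix) is given: first quartile when negative (synergy) and third quartile when positive (antagonism).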

O=C(O[C@@H]1Cc2c(O)cc(O)cc2O[C@@H]1c1cc(O)c(O)c(O)c1)c1cc(O)c(O)c(O)c1 [EGCG] + CN[C@@H]1[C@H](O[C@H]2[C@H](O[C@H]3[C@H](O)[C@@H](O)[C@H](N=C(N)N)[C@@H](O)[C@@H]3N=C(N)N)O[C@@H](C)[C@]2(O)C=O)O[C@@H](CO)[C@H](O)[C@H]1O [Streptomycin]
fitness
Conditions | first compound 6.25 µg/mL | first compound 12.5 µg/mL | first compound 25 µg/mL | first compound 50 µg/mL
B. subtilis 168 [1], partner 2 µg/mL | 0.918 | – | 0.325 | –
B. subtilis 168 [1], partner 4 µg/mL | 0.823 | 0.718 | 0.299 | –
B. subtilis 168 [1], partner 8 µg/mL | – | 0.522 | – | –
S. aureus Newman [2], partner 1 µg/mL | – | 0.774 | 0.773 | 0.713
S. aureus Newman [2], partner 2 µg/mL | – | 0.772 | 0.767 | 0.747
S. aureus Newman [2], partner 4 µg/mL | – | – | 0.453 | –
S. pneumoniae D39V [3], partner 2 µg/mL | – | 0.887 | 0.933 | 0.937
S. pneumoniae D39V [3], partner 4 µg/mL | – | 0.902 | 0.914 | 0.968
S. pneumoniae D39V [3], partner 8 µg/mL | – | 0.881 | 0.943 | 0.981

S. pneumoniae D39V [3], partner 16 µg/mL, one replicate
Conditions | fitness
first compound 12.5 µg/mL | 0.756
first compound 25 µg/mL | 0.759
first compound 50 µg/mL | 0.762

Conditions | Bliss interaction score
B. subtilis 168 [4] | 0.303
S. aureus DSM 20231 [5] | 0.136
S. aureus Newman [6] | 0.0695
S. pneumoniae D39V [7] | 0.0781

O=C(O[C@@H]1Cc2c(O)cc(O)cc2O[C@@H]1c1cc(O)c(O)c(O)c1)c1cc(O)c(O)c(O)c1 [EGCG] + COc1cc(Cc2cnc(N)nc2N)cc(OC)c1OC [Trimethoprim]
fitness, B. subtilis 168 [1], one replicate
Conditions | partner 0.1 µg/mL | partner 0.2 µg/mL | partner 0.4 µg/mL | partner 1 µg/mL | partner 2 µg/mL
first compound 6.25 µg/mL | 0.856 | 0.624 | 0.464 | 0.346 | 0.485
first compound 12.5 µg/mL | 0.438 | 0.252 | 0.235 | 0.127 | 0.13
first compound 25 µg/mL | 0.199 | 0.102 | 0.0997 | 0.0869 | 0.0586

fitness
Conditions | partner 0.125 µg/mL | partner 0.25 µg/mL | partner 0.5 µg/mL | partner 1 µg/mL
B. subtilis 168 [1], first compound 6.25 µg/mL | 0.611 | – | 0.508 | –
B. subtilis 168 [1], first compound 12.5 µg/mL | 0.363 | 0.426 | 0.41 | –
B. subtilis 168 [1], first compound 25 µg/mL | 0.232 | – | 0.244 | –
S. aureus DSM 20231 [8], first compound 12.5 µg/mL | 0.621 | 0.544 | 0.338 | 0.0444
S. aureus DSM 20231 [8], first compound 25 µg/mL | 0.675 | 0.541 | 0.3 | 0.0338
S. aureus DSM 20231 [8], first compound 50 µg/mL | 0.71 | 0.588 | 0.292 | 0.0285

Conditions | Bliss interaction score
B. subtilis 168 [4] | -0.0682
S. aureus DSM 20231 [5] | 0.0729
S. aureus Newman [6] | 0.115
S. pneumoniae D39V [7] | 0.12

CCC[C@@H]1C[C@@H](C(=O)N[C@@H]([C@H]2O[C@H](SC)[C@H](O)[C@@H](O)[C@H]2O)[C@@H](C)O)N(C)C1 [Lincomycin] + CCCCCCCCCC(=O)N[C@@H]1[C@H]([C@@H]([C@H](O[C@H]1OC2=C3C=C4C=C2OC5=C(C=C(C=C5)[C@H]([C@H]6C(=O)N[C@@H](C7=C(C(=CC(=C7)O)OC8[C@H]([C@H]([C@@H]([C@H](O8)CO)O)O)O)C9=C(C=CC(=C9)[C@H](C(=O)N6)NC(=O)[C@@H]4NC(=O)[C@@H]1C2=CC(=CC(=C2)OC2=C(C=CC(=C2)[C@H](C(=O)N[C@H](CC2=CC(=C(O3)C=C2)Cl)C(=O)N1)N)O)O)O)C(=O)O)O[C@H]1[C@@H]([C@H]([C@@H]([C@H](O1)CO)O)O)NC(=O)C)Cl)CO)O)O [Teicoplanin]
fitness, S. aureus DSM 20231 [8], main component drawn
Conditions | partner 0.1562 µg/mL | partner 0.3125 µg/mL | partner 0.625 µg/mL
first compound 0.1 µg/mL | 0.913 | 0.979 | ≥ 1
first compound 0.2 µg/mL | 0.825 | 0.821 | 0.941

main component drawn
Conditions | Bliss interaction score
B. subtilis 168 [4] | -0.111
S. aureus DSM 20231 [5] | 0.118
S. aureus Newman [6] | 0.179
S. pneumoniae D39V [7] | -0.0397

CCC[C@@H]1C[C@@H](C(=O)N[C@@H]([C@H]2O[C@H](SC)[C@H](O)[C@@H](O)[C@H]2O)[C@@H](C)O)N(C)C1 [Lincomycin] + CN[C@H](CC(C)C)C(=O)N[C@H]1C(=O)N[C@@H](CC(N)=O)C(=O)N[C@H]2C(=O)N[C@H]3C(=O)N[C@H](C(=O)N[C@H](C(=O)O)c4cc(O)cc(O)c4-c4cc3ccc4O)[C@H](O)c3ccc(c(Cl)c3)Oc3cc2cc(c3O[C@@H]2O[C@H](CO)[C@@H](O)[C@H](O)[C@H]2O[C@H]2C[C@](C)(N)[C@H](O)[C@H](C)O2)Oc2ccc(cc2Cl)[C@H]1O [Vancomycin]
Conditions | fitness
S. aureus DSM 20231 [8], first compound 0.1 µg/mL, partner 0.1875 µg/mL | 0.805
S. aureus DSM 20231 [8], first compound 0.1 µg/mL, partner 0.375 µg/mL | 0.873
S. aureus DSM 20231 [8], first compound 0.1 µg/mL, partner 0.75 µg/mL | 0.922
S. aureus DSM 20231 [8], first compound 0.2 µg/mL, partner 0.1875 µg/mL | 0.679
S. aureus DSM 20231 [8], first compound 0.2 µg/mL, partner 0.375 µg/mL | 0.701
S. aureus DSM 20231 [8], first compound 0.2 µg/mL, partner 0.75 µg/mL | 0.745
S. aureus DSM 20231 [8], first compound 0.4 µg/mL, partner 0.1875 µg/mL | 0.346
S. aureus DSM 20231 [8], first compound 0.4 µg/mL, partner 0.375 µg/mL | 0.336
S. aureus DSM 20231 [8], first compound 0.4 µg/mL, partner 0.75 µg/mL | 0.371
S. pneumoniae D39V [3], first compound 0.2 µg/mL, partner 0.03125 µg/mL | 0.706
S. pneumoniae D39V [3], first compound 0.2 µg/mL, partner 0.0625 µg/mL | 0.695
S. pneumoniae D39V [3], first compound 0.2 µg/mL, partner 0.125 µg/mL | 0.489
S. pneumoniae D39V [3], first compound 0.215 µg/mL, partner 0.125 µg/mL | 0.845
S. pneumoniae D39V [3], first compound 0.215 µg/mL, partner 0.25 µg/mL | 0.782
S. pneumoniae D39V [3], first compound 0.4 µg/mL, partner 0.03125 µg/mL | 0.61
S. pneumoniae D39V [3], first compound 0.4 µg/mL, partner 0.0625 µg/mL | 0.604
S. pneumoniae D39V [3], first compound 0.43 µg/mL, partner 0.125 µg/mL | 0.792
S. pneumoniae D39V [3], first compound 0.43 µg/mL, partner 0.25 µg/mL | 0.699
S. pneumoniae D39V [3], first compound 0.43 µg/mL, partner 0.5 µg/mL | 0.248
S. pneumoniae D39V [3], first compound 0.8 µg/mL, partner 0.03125 µg/mL | 0.279
S. pneumoniae D39V [3], first compound 0.8 µg/mL, partner 0.125 µg/mL | 0.191
S. pneumoniae D39V [3], first compound 0.86 µg/mL, partner 0.125 µg/mL | 0.356
S. pneumoniae D39V [3], first compound 0.86 µg/mL, partner 0.25 µg/mL | 0.311
S. pneumoniae D39V [3], first compound 0.86 µg/mL, partner 0.5 µg/mL | 0.0793

Conditions | Bliss interaction score
B. subtilis 168 [4] | 0.0223
S. aureus DSM 20231 [5] | -0.0567
S. aureus Newman [6] | 0.0733
S. pneumoniae D39V [7] | 0.117

CCC[C@@H]1C[C@@H](C(=O)N[C@@H]([C@H]2O[C@H](SC)[C@H](O)[C@@H](O)[C@H]2O)[C@@H](C)O)N(C)C1 [Lincomycin] + COc1cc(Cc2cnc(N)nc2N)cc(OC)c1OC [Trimethoprim]
fitness, B. subtilis 168 [1], one replicate
Conditions | partner 0.1 µg/mL | partner 0.125 µg/mL | partner 0.2 µg/mL | partner 0.25 µg/mL | partner 0.4 µg/mL | partner 1 µg/mL | partner 2 µg/mL
first compound 0.1 µg/mL | – | 0.539 | – | 0.582 | – | 0.451 | 0.343
first compound 0.2 µg/mL | – | 0.633 | – | 0.619 | – | 0.319 | 0.174
first compound 0.4 µg/mL | 0.581 | – | 0.318 | – | 0.215 | 0.069 | 0.0635
first compound 0.8 µg/mL | 0.382 | 0.142 | 0.169 | – | 0.121 | – | –
first compound 1.6 µg/mL | 0.112 | 0.0455 | 0.0673 | – | 0.0597 | – | –

fitness
Conditions | first compound 0.1 µg/mL | first compound 0.2 µg/mL | first compound 0.4 µg/mL | first compound 0.8 µg/mL | first compound 1.6 µg/mL
B. subtilis 168 [1], partner 0.125 µg/mL | – | – | 0.487 | – | –
B. subtilis 168 [1], partner 0.25 µg/mL | – | – | 0.465 | 0.263 | 0.0775
B. subtilis 168 [1], partner 0.5 µg/mL | 0.412 | 0.368 | 0.282 | 0.155 | 0.0565
S. aureus DSM 20231 [8], partner 0.125 µg/mL | 0.83 | 0.556 | 0.227 | – | –
S. aureus DSM 20231 [8], partner 0.25 µg/mL | 0.69 | 0.596 | – | – | –
S. aureus DSM 20231 [8], partner 0.5 µg/mL | 0.49 | 0.536 | 0.173 | – | –
S. aureus DSM 20231 [8], partner 1 µg/mL | 0.0776 | 0.0724 | 0.0567 | – | –

Conditions | Bliss interaction score
B. subtilis 168 [4] | -0.231
S. aureus DSM 20231 [5] | 0.222
S. aureus Newman [6] | 0.213
S. pneumoniae D39V [7] | -0.125
